Measured values taken from PubChem BioAssay (NCI).
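Cells were grown in 96-well plates and exposed to each compound for 48 hours at five concentrations; endpoints were interpolated linearly between bracketing concentrations, or set to the highest concentration if not reached. TGI: total growth inhibition.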

What was measured:
Experiment in all cases: NCI-60 cell line screen, 48 h
786-0 renal = tested on: 786-0 renal
A498 renal = tested on: A498 renal
A549 NSCLC = tested on: A549 NSCLC
ACHN renal = tested on: ACHN renal
BT-549 breast = tested on: BT-549 breast
CAKI-1 renal = tested on: CAKI-1 renal
CCRF-CEM leukemia = tested on: CCRF-CEM leukemia
COLO 205 colon = tested on: COLO 205 colon
DU-145 prostate = tested on: DU-145 prostate
EKVX NSCLC = tested on: EKVX NSCLC
HCT-116 colon = tested on: HCT-116 colon
HCT-15 colon = tested on: HCT-15 colon
HL-60(TB) leukemia = tested on: HL-60(TB) leukemia
HOP-62 NSCLC = tested on: HOP-62 NSCLC
HOP-92 NSCLC = tested on: HOP-92 NSCLC
HS 578T breast = tested on: HS 578T breast
HT29 colon = tested on: HT29 colon
IGROV1 ovarian = tested on: IGROV1 ovarian
K-562 leukemia = tested on: K-562 leukemia
KM12 colon = tested on: KM12 colon
LOX IMVI melanoma = tested on: LOX IMVI melanoma
M14 melanoma = tested on: M14 melanoma
MCF7 breast = tested on: MCF7 breast
MDA-MB-231 breast = tested on: MDA-MB-231 breast
MDA-MB-435 = tested on: MDA-MB-435
MDA-N = tested on: MDA-N
MOLT-4 leukemia = tested on: MOLT-4 leukemia
NCI-H23 lung = tested on: NCI-H23 lung
NCI-H460 lung = tested on: NCI-H460 lung
NCI-H522 lung = tested on: NCI-H522 lung
NCI/ADR-RES ovarian = tested on: NCI/ADR-RES ovarian
OVCAR-3 ovarian = tested on: OVCAR-3 ovarian
OVCAR-4 ovarian = tested on: OVCAR-4 ovarian
OVCAR-5 ovarian = tested on: OVCAR-5 ovarian
OVCAR-8 ovarian = tested on: OVCAR-8 ovarian
PC-3 prostate = tested on: PC-3 prostate
RPMI-8226 leukemia = tested on: RPMI-8226 leukemia
SF-268 CNS = tested on: SF-268 CNS
SF-295 CNS = tested on: SF-295 CNS
SF-539 CNS = tested on: SF-539 CNS
SK-MEL-2 melanoma = tested on: SK-MEL-2 melanoma
SK-MEL-5 melanoma = tested on: SK-MEL-5 melanoma
SK-OV-3 ovarian = tested on: SK-OV-3 ovarian
SN12C renal = tested on: SN12C renal
SNB-19 CNS = tested on: SNB-19 CNS
SNB-75 CNS = tested on: SNB-75 CNS
SR leukemia = tested on: SR leukemia
SW-620 colon = tested on: SW-620 colon
T-47D breast = tested on: T-47D breast
TK-10 renal = tested on: TK-10 renal
U251 CNS = tested on: U251 CNS
UACC-257 melanoma = tested on: UACC-257 melanoma
UACC-62 melanoma = tested on: UACC-62 melanoma
UO-31 renal = tested on: UO-31 renal
MALME-3M melanoma = tested on: MALME-3M melanoma
NCI-H226 lung = tested on: NCI-H226 lung
RXF 393 renal = tested on: RXF 393 renal
SK-MEL-28 melanoma = tested on: SK-MEL-28 melanoma

`O=C(O)CSC(CC1(c2ccc(Cl)cc2)NC(=O)CS1)c1ccc(Cl)cc1` (configuration not stated) showed a TGI (786-0 renal) greater than 100 µM, a TGI (A498 renal) greater than 100 µM and a TGI (A549 NSCLC) greater than 100 µM. For the same compound, the TGI (ACHN renal) was greater than 100 µM, the TGI (BT-549 breast) was greater than 100 µM and the TGI (CAKI-1 renal) was greater than 100 µM. For the same compound, the TGI (CCRF-CEM leukemia) was greater than 100 µM, the TGI (COLO 205 colon) was greater than 100 µM and the TGI (DU-145 prostate) was greater than 100 µM. The TGI (EKVX NSCLC) was greater than 100 µM, the TGI (HCT-116 colon) was greater than 100 µM and the TGI (HCT-15 colon) was greater than 100 µM. For the same compound, the TGI (HL-60(TB) leukemia) was greater than 100 µM, the TGI (HOP-62 NSCLC) was greater than 100 µM and the TGI (HOP-92 NSCLC) was 87.6 µM. The TGI (HS 578T breast) was greater than 100 µM, the TGI (HT29 colon) was greater than 100 µM and the TGI (IGROV1 ovarian) was greater than 100 µM. The TGI (K-562 leukemia) was greater than 100 µM, the TGI (KM12 colon) was greater than 100 µM and the TGI (LOX IMVI melanoma) was greater than 100 µM. The TGI (M14 melanoma) was greater than 100 µM, the TGI (MCF7 breast) was greater than 100 µM and the TGI (MDA-MB-231 breast) was greater than 100 µM. It also gave a TGI (MDA-MB-435) greater than 100 µM, a TGI (MDA-N) greater than 100 µM and a TGI (MOLT-4 leukemia) greater than 100 µM. It also gave a TGI (NCI-H23 lung) greater than 100 µM, a TGI (NCI-H460 lung) greater than 100 µM and a TGI (NCI-H522 lung) greater than 100 µM. It also gave a TGI (NCI/ADR-RES ovarian) greater than 100 µM, a TGI (OVCAR-3 ovarian) greater than 100 µM and a TGI (OVCAR-4 ovarian) greater than 100 µM. It also gave a TGI (OVCAR-5 ovarian) greater than 100 µM, a TGI (OVCAR-8 ovarian) greater than 100 µM and a TGI (PC-3 prostate) greater than 100 µM. The TGI (RPMI-8226 leukemia) was greater than 100 µM, the TGI (SF-268 CNS) was greater than 100 µM and the TGI (SF-295 CNS) was greater than 100 µM. For the same compound, the TGI (SF-539 CNS) was greater than 100 µM, the TGI (SK-MEL-2 melanoma) was greater than 100 µM and the TGI (SK-MEL-5 melanoma) was greater than 100 µM. It also gave a TGI (SK-OV-3 ovarian) greater than 100 µM, a TGI (SN12C renal) greater than 100 µM and a TGI (SNB-19 CNS) greater than 100 µM. The TGI (SNB-75 CNS) was greater than 100 µM, the TGI (SR leukemia) was greater than 100 µM and the TGI (SW-620 colon) was greater than 100 µM. The TGI (T-47D breast) was greater than 100 µM, the TGI (TK-10 renal) was greater than 100 µM and the TGI (U251 CNS) was greater than 100 µM. For the same compound, the TGI (UACC-257 melanoma) was greater than 100 µM, the TGI (UACC-62 melanoma) was greater than 100 µM and the TGI (UO-31 renal) was greater than 100 µM.
`Oc1ccc2c(c1)CCc1c-2n(CCN2CCOCC2)c2ccc(O)cc12` showed a TGI (786-0 renal) greater than 100 µM, a TGI (A498 renal) of 39.6 µM and a TGI (ACHN renal) of 53 µM. It also gave a TGI (BT-549 breast) greater than 100 µM, a TGI (CAKI-1 renal) greater than 100 µM and a TGI (CCRF-CEM leukemia) greater than 100 µM. The TGI (COLO 205 colon) was greater than 100 µM, the TGI (DU-145 prostate) was greater than 100 µM and the TGI (EKVX NSCLC) was greater than 100 µM. For the same compound, the TGI (HCT-116 colon) was greater than 100 µM, the TGI (HCT-15 colon) was greater than 100 µM and the TGI (HL-60(TB) leukemia) was greater than 100 µM. It also gave a TGI (HOP-62 NSCLC) greater than 100 µM, a TGI (HS 578T breast) greater than 100 µM and a TGI (IGROV1 ovarian) of 60.9 µM. It also gave a TGI (K-562 leukemia) greater than 100 µM, a TGI (KM12 colon) of 52.9 µM and a TGI (LOX IMVI melanoma) greater than 100 µM. It also gave a TGI (M14 melanoma) greater than 100 µM, a TGI (MALME-3M melanoma) of 75.6 µM and a TGI (MCF7 breast) greater than 100 µM. The TGI (MDA-MB-231 breast) was greater than 100 µM, the TGI (MDA-MB-435) was greater than 100 µM and the TGI (MDA-N) was greater than 100 µM. For the same compound, the TGI (MOLT-4 leukemia) was greater than 100 µM, the TGI (NCI-H226 lung) was greater than 100 µM and the TGI (NCI-H23 lung) was 90.3 µM. For the same compound, the TGI (NCI-H460 lung) was greater than 100 µM, the TGI (NCI/ADR-RES ovarian) was 48.3 µM and the TGI (OVCAR-3 ovarian) was greater than 100 µM. It also gave a TGI (OVCAR-5 ovarian) greater than 100 µM, a TGI (OVCAR-8 ovarian) of 57.1 µM and a TGI (PC-3 prostate) greater than 100 µM. For the same compound, the TGI (RPMI-8226 leukemia) was greater than 100 µM, the TGI (RXF 393 renal) was greater than 100 µM and the TGI (SF-268 CNS) was greater than 100 µM. For the same compound, the TGI (SF-295 CNS) was greater than 100 µM, the TGI (SF-539 CNS) was greater than 100 µM and the TGI (SK-MEL-2 melanoma) was 70.9 µM. The TGI (SK-MEL-28 melanoma) was greater than 100 µM, the TGI (SK-MEL-5 melanoma) was 39 µM and the TGI (SK-OV-3 ovarian) was greater than 100 µM. For the same compound, the TGI (SN12C renal) was greater than 100 µM, the TGI (SNB-19 CNS) was greater than 100 µM and the TGI (SNB-75 CNS) was 78.1 µM. For the same compound, the TGI (SR leukemia) was greater than 100 µM, the TGI (SW-620 colon) was greater than 100 µM and the TGI (T-47D breast) was greater than 100 µM. The TGI (TK-10 renal) was greater than 100 µM, the TGI (U251 CNS) was greater than 100 µM and the TGI (UACC-257 melanoma) was greater than 100 µM. For the same compound, the TGI (UACC-62 melanoma) was 55.5 µM and the TGI (UO-31 renal) was 34.9 µM.
